Columns and labels:
ID83 antigen = ID83 antigen with GLA-SE, GLA/CpG-SE or GLA/GDQ-SE in mice, intracellular cytokine staining; type: in vivo, Mice (C57BL/6); details: GLA/GDQ-SE or GLA/CpG-SE versus GLA-SE
Leish-110f antigen = Leish-110f antigen with different amounts of GLA-SE in mice, IgG1/IgG2a ELISA; type: in vivo, Mice (Balb/c)
Protocol: Mice (three Balb/c animals per group) were immunized three times at two-week intervals with the Leish-110f antigen (10 μg per animal for each immunization) formulated in a stable emulsion containing different amounts of GLA (Avanti Polar Lipids, Inc., Alabaster, Ala.; product number 699800; 40, 20, 5, or 1 μg per animal for each immunization according to the procedure used in Example 3 above, GLA-SE). Sera were collected by bleeding animals one week after the first immunization, and serum levels of IgG1 and IgG2a antibodies specific for Leish-110f were examined by ELISA according to published methods (Id.).

[1] = system: Dendritic cells derived from purified blood CD14+ monocytes; assay: GLA stimulation of human dendritic cells, CD86 surface expression by flow cytometry; type: cell-based
Text: Dendritic cells were derived from purified blood CD14+ monocytes following a published protocol. Various adjuvant concentrations of either synthetic GLA (Avanti Polar Lipids, Inc., Alabaster, Ala.; product number 699800) or the natural product MPL® (GSK Biologicals, Rixensart, Belgium) were achieved by diluting an aqueous adjuvant preparation in cell culture medium (RPMI containing 5% human serum). Prior to collection and analysis of the expression of activation markers, cells were maintained for 44 hours at 37° C. in a humidified atmosphere containing 5% CO2. Expression levels of the costimulatory molecule CD86 at the surface of DC were used as an indicator of cell activation and measured by flow cytometry on a LSRII instrument (BD Biosciences, San Jose, Calif.) using CD86-specific fluorochrome-labeled antibody (eBiosciences, San Diego, Calif.) according to the manufacturer's instructions.

Human whole blood cells = assay: GLA stimulation of human blood cells, IL-1β ELISA; type: cell-based; details: 16 hours
Protocol: Human whole blood cells were cultured with various adjuvant concentrations of either synthetic GLA (Avanti Polar Lipids, Inc., Alabaster, Ala.; product number 699800) or the natural product MPL® (GSK Biologicals, Rixensart, Belgium), achieved by diluting an aqueous adjuvant preparation in cell culture medium (DMEM containing 10% fetal bovine serum). Blood cells were maintained for 16 hours at 37° C. in a humidified atmosphere containing 5% CO2, prior to collection of cell-free culture supernatants. Supernatant fluids were assayed for soluble human cytokine IL-1β using specific sandwich ELISA assay kit (eBiosciences, San Diego, Calif.) according to the manufacturer's instructions.

USP Rabbit Pyrogen Test = details: in vivo
Protocol: GLA and MPL were evaluated for pyrogenicity/toxicity using the United States Pharmacopeial (USP) rabbit pyrogen test method. GLA was tested at the same doses and conditions commonly used for MPL.

Influenza = assay: Fluzone vaccine with GLA-AF or GLA-SE in mice, anti-Fluzone IgG ELISA and HAI; type: in vivo, Mice (Balb/c); details: GLA 20 μg in aqueous or stable oil formulation; compared to Fluzone alone
Protocol: Mice (three Balb/c animals per group) were immunized twice at three-week intervals with the Fluzone vaccine (Sanofi-Aventis, Swiftwater, Pa., at 1/25 (20 μl) and 1/250 (2 μl) of the human dosage, alone, or formulated in (i) an aqueous emulsion containing GLA (Avanti Polar Lipids, Inc., Alabaster, Ala.; product number 699800; 20 μg per animal for each immunization) according to the procedure used in Example 1 above (“GLA-AF”), or (ii) a stable emulsion containing GLA (Avanti Polar Lipids, Inc., Alabaster, Ala.; product number 699800; 20 μg per animal for each immunization) according to the procedure used in Example 3 above (“GLA-SE”). Sera were collected by bleeding animals one week after each immunization, and serum levels of total IgG antibodies specific for Fluzone were examined by ELISA according to published methods (Id.). Serum levels of virus neutralizing antibodies were also examined by Hemagglutination Inhibition Assay (HAI) according to published methods.

ML0276 antigen = ML0276 antigen with CpG, Imiquimod, GLA-SE or mix in mice, IFN-γ CD4+ T cell ICS; type: in vivo, Mice (C57BL/6); details: adjuvant given with ML0276 antigen 10 μg; saline background 0.04%
Protocol: Mice (three C57BL/6 animals per group) were immunized three times at three-week intervals with the ML0276 antigen (10 μg per animal for each immunization) adjuvanted with aqueous formulations containing CpG (CpG1826, Coley Pharmaceutical, 25 μg per animal for each immunization), or Imiquimod (IMQ) (3M Pharma, 25 μg per animal for each immunization), or GLA (Avanti Polar Lipids, Inc., Alabaster, Ala.; product number 699800; 25 μg per animal for each immunization, according to the procedure used in Example 3 above, GLA-SE), a mix of the three, or saline as negative control. Three weeks after the last injection, mice were sacrificed and spleen collected to analyze CD4+ T cell-dependent IFN-γ cytokine responses to in vitro ML0276 antigen stimulation by ICS and Flow cytometry according to published methods. Expression of IFN-γ cytokine has been associated with protective TH1 responses against M. leprae infection.

## CCNCc1nc2c(N)nc3ccccc3c2n1CC(C)(C)O [GDQ, Gardiquimod]
ID83 antigen
  frequency of ID83 specific cytokine producing T cells on addition of a second TLR ligand to ID83+GLA-SE: further increased

## CCCCCCCCCCCCCC(=O)O[C@H](CCCCCCCCCCC)CC(=O)O[C@@H]1[C@@H](NC(=O)C[C@@H](CCCCCCCCCCC)OC(=O)CCCCCCCCCCC)[C@H](OC[C@H]2O[C@H](O)[C@H](NC(=O)C[C@H](O)CCCCCCCCCCC)[C@@H](OC(=O)C[C@H](O)CCCCCCCCCCC)[C@@H]2O)O[C@H](CO)[C@H]1OP(=O)(O)O [GLA, glucopyranosyl lipid adjuvant]
Leish-110f antigen; GLA 40, 20, 5, or 1 μg in GLA-SE, one week after the first immunization
  Leish-110f-specific IgG1 and IgG2a antibody titers: GLA dose-dependent
Leish-110f antigen; all concentrations of GLA tested
  predominant Leish-110f-specific antibody isotype: Predominance of TH1 associated IgG2a antibody
[1]; CD86 expression
  active at concentrations lower compared to MPL for human dendritic cell maturation: at least 10 fold
[1]; additional three donors, 1000 ng/ml to 1 ng/mL
  CD86 expression, GLA versus MPL: lower doses of GLA achieved higher CD86 expression than MPL
Human whole blood cells
  concentration equivalent in potency (IL-1β secretion): 92 nM
USP Rabbit Pyrogen Test
  pyrogenicity/toxicity, USP<151> requirements: passed the USP<151> requirements for the absence of pyrogens
Influenza
  Total IgG and neutralizing antibody titers in response to Fluzone vaccination: enhanced

## CC(C)Cn1cnc2c(N)nc3ccccc3c21 [IMQ, Imiquimod]
ML0276 antigen
  frequency of ML0276 specific IFN-γ+ CD4+ T cells (positive cells): 0.11%
